Laboratory results published in patent publication US20240050442A1, “TRIMEPRAZINE DERIVATIVES AND COMPOSITIONS COMPRISING THE SAME FOR TREATING A NEUROPSYCHIATRIC DISORDER” (CENTRE NATIONAL DE LA RECHERCHE SCIENTIFIQUE, priority 2020, published 2024).

Assays:
Assay type in all cases: in vivo
Fmr1-KO mice [1] = assay: Homing behaviour test (social discrimination, cognition); conditions: 13 post-natal days; for latency time (homing test): 0.175 mg/kg BW intraperitoneal, FIG. 2A
Procedure: The experiments were performed following the ARRIVE (Animals in Research: Reporting In Vivo Experiments) guidelines. Fmr1-knockout (KO) and WT mice on a C57BL/6J congenic background were obtained from Prof. R. Willemsen. All animals were generated and housed in groups of 4 in standard laboratory conditions (22° C., 55±10% humidity, 12-h light/12-h dark diurnal cycles) with food and water provided ad libitum. Experimental testing was performed between 12:00 and 16:30 each day during the 12-h light period. Only male mice and rats were used. Animal care was conducted in accordance with the European Community Directive 2010/63/EU. The experiments were approved by the local ethics committee (Comité d′Ethique en Expérimentation Animale, by the French Ministry of Research. Trimeprazine and opipramol were purchased from Prestwich Library. Both molecules were diluted in DMSO at the stock concentration of 100 mM. All compounds injected intraperitoneally were administered in a volume of 1.5 ml per kg body weight at the amount indicated in the legends of each figure. Homing Behaviour Test: At PND 13, the litter was separated from the dam and kept for 30 min in a temperature-controlled holding cage. Then, each mouse pup was placed into a Plexiglas box whose floor was covered for ⅓ with bedding from the pup's home cage and for ⅔ with clean bedding. The pup was located at the side of the box covered by clean bedding, and its behaviour was videorecorded for 4 min for subsequent analysis. The following parameters were scored using the Observer 3.0 software (Noldus Information Technology): latency (s) to reach the home-cage bedding area; total time (s) spent by the pup in the nest bedding area.

Fmr1-KO mice [2] = assay: Social interaction test; conditions: 28-30 post-natal days, 0.25 mg/kg BW intraperitoneal
Procedure: The experiments were performed following the ARRIVE (Animals in Research: Reporting In Vivo Experiments) guidelines. Fmr1-knockout (KO) and WT mice on a C57BL/6J congenic background were obtained from Prof. R. Willemsen. All animals were generated and housed in groups of 4 in standard laboratory conditions (22° C., 55±10% humidity, 12-h light/12-h dark diurnal cycles) with food and water provided ad libitum. Experimental testing was performed between 12:00 and 16:30 each day during the 12-h light period. Only male mice and rats were used. Animal care was conducted in accordance with the European Community Directive 2010/63/EU. The experiments were approved by the local ethics committee (Comité d'Ethique en Expérimentation Animale, by the French Ministry of Research. Trimeprazine and opipramol were purchased from Prestwich Library. Both molecules were diluted in DMSO at the stock concentration of 100 mM. All compounds injected intraperitoneally were administered in a volume of 1.5 ml per kg body weight at the amount indicated in the legends of each figure. Social Interaction Test: The 28-30-day-old mice were individually habituated to the experimental apparatus (a Plexiglas cage measuring 30×30×30 cm) for 5 min the day before testing. On the test day, the animals were isolated for 2 h before testing, to enhance their social motivation and thus facilitate the expression of social interaction during testing. The test consisted of placing 2 animals (same treatment and weight) into the test cage for 10 min. The behaviour of the animals was recorded using a video camera with zoom lens, DVD recorder and LCD monitor. Behaviour was assessed per single animal and analyzed by a trained observer who was unaware of genotype and treatment conditions using the Observer XT software (Noldus, The Netherlands). The following parameters were scored: a. Social Activities: • 1. Social sniffing: sniffing any part of the body of the partner, including the anogenital area. • 2. Following: moving in the direction of or pursuing the partner, who moves away. • 3. Mutual circle: partners are mutually sniffing each other's anogenital region, while describing tight circles with their reciprocal following movements. • 4. Pushing past: the focal animal passes between the wall of the cage and the body of the partner by pushing its own body through the narrow space available. • 5. Crawling under/over: the focal animal crawls underneath or over the partner's body, crossing it transversely from one side to the other. • 6. Social grooming: chewing and licking the fur of the partner. • 7. Social rest: the focal animal is being groomed by the partner. • 8. […] The average frequency of total social activities, quantified as number of events during the 10 min testing session, was graphed.

Fmr1-KO mice [3] = assay: Novel object recognition test (working memory)
Procedure: The experiments were performed following the ARRIVE (Animals in Research: Reporting In Vivo Experiments) guidelines. Fmr1-knockout (KO) and WT mice on a C57BL/6J congenic background were obtained from Prof. R. Willemsen. All animals were generated and housed in groups of 4 in standard laboratory conditions (22° C., 55±10% humidity, 12-h light/12-h dark diurnal cycles) with food and water provided ad libitum. Experimental testing was performed between 12:00 and 16:30 each day during the 12-h light period. Only male mice and rats were used. Animal care was conducted in accordance with the European Community Directive 2010/63/EU. The experiments were approved by the local ethics committee (Comité d′Ethique en Expérimentation Animale, by the French Ministry of Research. Trimeprazine and opipramol were purchased from Prestwich Library. Both molecules were diluted in DMSO at the stock concentration of 100 mM. All compounds injected intraperitoneally were administered in a volume of 1.5 ml per kg body weight at the amount indicated in the legends of each figure. On day 1 and 2, mice were habituated for 10 min to the maze in which the task was performed. On the third day, mice were put back in the maze for 10 min, two identical objects were presented and the time that the mice spent exploring each object was recorded. The mice were again placed in the maze 5 minutes later for 10 min, one of the familiar objects was replaced with a novel object and the total time spent exploring each of the two objects (novel and familiar) was computed. Object exploration was defined as the orientation of the nose to the object at a distance of less than 2 cm. A discrimination index was calculated as the difference between the times spent exploring either the novel or familiar object divided by the total time exploring the two objects. A higher discrimination index is considered to reflect greater memory retention for the familiar object. Pharmacological treatment with SM2 and SM4 was performed 30 minutes before training.

[4] = Fmr1-KO adolescent mice, acute treatment

OCCN1CCN(CCCN2c3ccccc3C=Cc3ccccc32)CC1 [SM2, opipramol]
latency time (homing test) (Fmr1-KO mice [1]; Fmr1-KO infant mice): does not have a beneficial impact
latency time (homing test) (Fmr1-KO mice [1]; WT infant mice): has a negative impact
number of social interactions (Fmr1-KO mice [2]; [4]): does not have a beneficial impact
number of social interactions (Fmr1-KO mice [2]; WT adolescent mice): has a negative impact
discrimination index (Fmr1-KO mice [3]; Fmr1-KO adult mice 8 weeks, 0.18 mg/kg BW intraperitoneal 30 minutes before training, FIG. 3B): not normalized
discrimination index (Fmr1-KO mice [3]; WT adult mice 8 weeks, 0.18 mg/kg BW intraperitoneal 30 minutes before training, FIG. 3B): worsened the behaviour

CC(CN(C)C)CN1c2ccccc2Sc2ccccc21 (centres unmarked) [SM4, Trimeprazine]
latency time (time the mouse pups need to find the mother's litter) (Fmr1-KO mice [1]; Fmr1-KO infant mice, 0.25 mg/kg BW intraperitoneal, FIG. 1A): normalized
number of social interactions (Fmr1-KO mice [2]; [4]): normalized
number of social interactions (Fmr1-KO mice [2]; WT adolescent mice): does not modify the social interaction behaviour
discrimination index (Fmr1-KO mice [3]; Fmr1-KO adult mice 8 weeks, 0.3 mg/kg BW intraperitoneal 30 minutes before training, FIG. 3A): Discrimination index is the same in treated WT and Fmr-KO mice
discrimination index (Fmr1-KO mice [3]; WT adult mice 8 weeks, 0.3 mg/kg BW intraperitoneal 30 minutes before training, FIG. 3A): has no impact on the behaviour
